Data on four compounds can be found in patent publication US6573050B1, “Treatment, diagnosis and evaluation of anti-cancer therapy resistance in melanoma” (Sunnybrook & Women's College Health Sciences Centre, priority 1999, dated 2003).

Each structure is given as a SMILES string. Read-outs that look alike come from different tables or passages of the source. Where only a bound is given, the exact number is not on record here.

Data set [1] concerns Clone E and Clone G cells vs WM35 cells.
Procedure: (§8) Cytotoxicity Assay. The number of viable cells following a treatment was assessed using the CellTiter™ 96 Aqueous Non-Radioactive MTS Cell Proliferation Assay (Promega). Briefly, 1×10^4 cells/well were plated in 96-well plates, allowed to attach overnight and then administered therapeutic agents at various levels for 24 hours. Four hours prior to harvest, MTS/phenazine methosulfate was added to the cells and the number of variable cells was determined by measuring the quantity of formazan by spectrophotometric analysis at 490 nm.
(§9) The indicated cell lines were cultured in 96 well plates at a density of 8×10^3 cells per well and treated for 24 hours with either A) carboplatin; B) taxol; or C) methotrexate, at the indicated concentrations. Cell viabilities were determined using the MTS assay (Promega), measuring the cellular conversion of the tetrazolium salt, MTS, into formula which can be quantified at 490 nm.
Data set [2] has the same test system. As to the kind of experiment: Cross resistance of CDDP-resistant clones, MTS assay. As to conditions: 24 hours treatment, various concentrations, MTS assay (FIG. 3). (Formazan colour is commonly taken as a measure of viable cells.)
Procedure: as §8, §9
Data set [3] relates to WM35 cells. As to the kind of experiment: MTS cytotoxicity assay, CDDP treatment. The format is cell-based, human. The conditions noted are these: 15 μM CDDP, 24 hour incubation, mean ± SEM, n=3. As for the experimental part: (§1) Cells and Culture Conditions. All human melanoma cell lines were generously provided by Dr. Meenhard Herlyn (Wistar Institute, Philadelphia, Pa.). The CDDP-resistant variants of WM35 (designated as Clone A to Clone I) were established by retroviral insertioual mutagenesis of WM35 cells as described previously (Lu et al. (1995) Cancer Res. 55:1139-1145). Cells were routinely maintained in RPMI 1640 (Life Technologies) supplement with 5% FBS (Life Technologies) at 37° C. in a humidified atmosphere of 95% air; 5% CO2.
(§2) To determine the correlation between levels of TYRP2 expression and CDDP resistance, the cells assessed in the UV(B) survival assay as shown in Table 2 were further assessed for resistance to CDDP. Cells were plated in 96-well plates and treated with 15 μM CDDP. After a 24 hour incubation, cell viability was determined by the MTS assay.

The test system of data set [4] is Clone E cells (CDDP-resistant variant of WM35). Kind of data set: MTS cytotoxicity assay, CDDP treatment. The format is cell-based, human. The conditions noted are these: 15 μM CDDP. As for the experimental part: as §1
(§3) FIG. 9 illustrates the response of melanoma cell lines to CDDP treatment. Each of the cell lines indicated were plated in 96-well plates at a density of 1×10^5 cells/well and treated with 15 μM CDDP for 24 hours. Percentage of viable cells were determined by the MTS assay. […] The levels TYRP2 expression in these cells directly correlated with their resistance to CDDP treatment (15 μM CDDP, 24 hours). For example, the cell line WM9, which expresses very low levels of TYRP2 was very sensitive to CDDP treatment (<20% of cells survived). Conversely, the cell lines WM451 and MeWo, for example, which express high levels of TYRP2 were resistant to CDDP treatment (approximately 80% of cells survived).
as §2

Another data set concerns MeWo cells. Kind of data set: MTS cytotoxicity assay, CDDP treatment. Format: cell-based, human. The conditions noted are these: 15 μM CDDP. As for the experimental part:
as §1, §3, §2

Another data set has as its system WM9 cells. Kind of data set: MTS cytotoxicity assay, CDDP treatment. The format is cell-based, human. The conditions noted are these: 15 μM CDDP. How it is done:
as §1, §3, §2

Data set [5] relates to XR9 cells (x-ray resistant variant of WM35). Kind of data set: MTS cytotoxicity assay, CDDP treatment. The format is cell-based, human. As to conditions: 15 μM CDDP, 24 hour incubation, mean ± SEM, n=3. How it is done:
Gamma radiation resistant mutant cell lines were selected using retroviral insertional mutagenesis, with selection based on resistance to gamma radition. X-ray resistant mutant cell lines, designated as “XR” were established.
as §2

The test system of the next data set is 1552C cells. Kind of data set: MTS cytotoxicity assay, CDDP treatment. Format: cell-based, human. As to conditions: 15 μM CDDP, 24 hours, MTS assay (FIG. 9). How it is done: as §1, §3
Another data set relates to WM1341B cells. Kind of data set: MTS cytotoxicity assay, CDDP treatment. The conditions noted are these: 15 μM CDDP, 24 hours, MTS assay (FIG. 9). The format is cell-based, human. How it is done:
as §1, §3

Another data set has as its system WM373 cells. As to the kind of experiment: MTS cytotoxicity assay, CDDP treatment. The format is cell-based, human. The conditions noted are these: 15 μM CDDP, 24 hours, MTS assay (FIG. 9). How it is done: as §1, §3
Another data set deals with WM451 cells. Kind of data set: MTS cytotoxicity assay, CDDP treatment. Format: cell-based, human. The conditions noted are these: 15 μM CDDP, 24 hours, MTS assay (FIG. 9). As for the experimental part:
as §1, §3

In data set [6] the test system is Clone E and Clone G cells vs WM35 cells. As to the kind of experiment: CDDP resistance of retrovirally derived clones compared to parental WM35. Format: cell-based, human. As to conditions: approximately. As for the experimental part: as §1
This technique of retroviral insertional mutagenesis was applied on WM35 cells, an early stage CDDP sensitive human melanoma cell line. WM35 cells were infected with a replication defective amphotrophic murine stein cell virus (MSCV) retrovirus and the pooled cells were subsequently selected for CDDP resistance.
From this technique, nine independently derived clones, Clone A to Clone I, were obtained. […] Since changes in tumor sensitivities in the range of 2-5 fold can account for loss of tumor responsiveness to anti-cancer therapeutic drugs, this difference could be clinically significant (Kuroda et al. (1991) Int. J. Cancer 47:732-737).

The next data set has as its system Clone E cells. Kind of data set: PARP cleavage, Western blot (apoptosis). Format: cell-based, human. As to conditions: 15 μM CDDP, up to 24 hours. How it is done: (§4) SDS-PAGE and Western Blot Analysis. Cell lysates were prepared using lysis buffer consisting of 50 mM Tris, pH 7.4, 50 mM NaCl, 2 mM MgCl2, 1 mM EDTA, 05% IDEPAL CA-630 and protease inhibitors (0.1 mM PMSF, 100 μM sodium vanadate, 20 μg/ml leupeptin, 20 mM […], 1 mM benzamide). Protein concentrations were determined by the Bradford assay (BioRad Laboratories) and equivalent quantities of protein (25 μg) were resolved by SDS-polyacrylamide gel electrophoresis (Laemmli (1970) Nature, 227, 680-685). […] Membranes were then incubated with a horseradish-peroxidase conjugated goat anti-rabbit antibody (1:5000 dilution) and immunoreactive sites were detected by enhanced chemiluminescence (Amersham). […]
(§5) The mechanism of action of CDDP, as well as other DNA alkylating agents ultimately involves generation of DNA damage and subsequently the induction of apoptosis. In order to determine if the increased resistance to CDDP in the retrovirally derived clones was associated with a reduction in CDDP-induced apoptosis, the levels of apoptosis in one of these clones (Clone E) relative to its parental WM35 cells were determined following treatment with 15 μM CDDP.
(§6) Increased cleavage of poly-ADP-ribose-polymerase (PARP) from the 116 kDa to the smaller 84 kDa subunit in WM35 cells was detected as early as 6 bours following 15 μM CDDP treatment. […]
In general terms: Immunoblotting shows a protein as a band on a membrane.

The test system of data set [7] is WM35 cells. As to the kind of experiment: PARP cleavage, Western blot (apoptosis). As to conditions: 15 μM CDDP, as early as. The format is cell-based, human. How it is done: as §4, §5, §6
The test system of data set [8] is WM35 cells vs Clone E cells. As to the kind of experiment: DNA fragmentation assay, Cell Death Detection ELISA. Format: cell-based, human. As to conditions: 15 μM CDDP, 18 hours. As for the experimental part:
DNA Fragmentation Assay. Levels of apoptosis were determined by quantifying DNA fragmentation using the Cell Death Detection ELISA Plus kit (Boehringer Mannheim). Briefly, cells were plated in 96-well plates at a density of 1×10^4 cells/well and allowed to attach overnight. Cells were treated with 15 μM CDDP for 18 hours and then lysed. Cell lysates were transferred to streptavidin-coated plates and used for ELISA analysis using anti-bistone-biotin and anti-DNA POD antibodies.
FIG. 2 illustrates DNA fragmentation analysis by ELISA using antibodies that recognize mono- and oligonucleotide fragments. Mono- and oligo-nucleosomes in the DNA of WM35 cells treated with 15 μM CDDP for 18 hours, were detected with a Cell Death ELISA Detection Kit (Boehringer Mannheim). The production of DNA 180 bp multimers was approximately 5 times greater in WM35 cells than in Clone E cells.
(In general: In an ELISA, binding on a coated surface is turned into a signal by an enzyme label.)

The test system of another data set is MeWo derived tumors. Kind of data set: MeWo tumors in immunodeficient CD-1 nude mice, CDDP treatment. Format: in vivo. The conditions noted are these: CDDP 2 mg/kg/2 days. How it is done:
(§7) In order to determine the significance of TYRP2-mediated CDDP resistance in vivo, tumors were generated in immunodeficient CD-1 mice by subcutaneous injection of 2×10^6 cells of either MeWo or WM9. WM35 cells were not used for in vivo studies because they lack tumorigenicity (Bani et al. (1996) Cancer Res. 56:3075-3086). […] Mice bearing these tumors were treated with CDDP three times weekly at a dose of 2 mg/kg.
FIG. 12 illustrates the correlation between TYRP2 expression and CDDP resistance in vivo. Tumors were generated in immunodeficient CD-1 nude mice by subdermally injecting MeWo cells.

For a further data set, the system named is WM9 derived tumors. Kind of data set: WM9 tumors in immunodeficient CD-1 nude mice, CDDP treatment. As to conditions: CDDP 2 mg/kg/2 days. Format: in vivo. As for the experimental part:
as §7
FIG. 13 illustrates the correlation between TYRP2 expression and CDDP resistance in vivo in WM9 cells. Tumors were generated in immunodeficient CD-1 nude mice by subdermally injecting WM9 cells. […] By day 18 of treatment, the tumors in 2 of 5 mice had completely disappeared.

Where [9] appears, read: 24 hour incubation, MTS assay, mean ± SEM, n=3.

In the case of `CN(Cc1cnc2nc(N)nc(N)c2n1)c1ccc(C(=O)N[C@@H](CCC(=O)O)C(=O)O)cc1` [methotrexate], the “resistance of Clone E and Clone G to cytotoxic effects compared to WM35 cells” value (“resistance … compared to WM35 cells” below) in data set [1] is “more resistant”.
As to `N.N.O=C([O-])C1(C(=O)[O-])CCC1.[Pt+2]` [carboplatin], the “resistance … compared to WM35 cells” value in data set [2] was “more resistant”.
For the compound `N.N.[Cl][Pt][Cl]` [CDDP, cis-diamminedichloroplatinum(II)], the “% Survival” value was determined as 52.6 ± 4.4% in the data set with WM35 cells [3]; 77.4 ± 6.7% in data set [4] (setting [9]); 77.0 ± 5.3% with MeWo cells (setting [9]); 13.8 ± 1.6% with WM9 cells (setting [9]); 82.4 ± 1.7% in data set [5]. The “survival compared to WM35 cells” value in data set [4] (24 hours, MTS assay (FIG. 9)) was “substantially higher survival”; with WM1341B cells, “substantially higher survival”; with WM373 cells it was “substantially higher survival”. Further, the “% of cells survived” value in the data set with MeWo cells (24 hours, MTS assay (FIG. 9)) is “approximately 80%”; with WM9 cells (24 hours, MTS assay (FIG. 9)), below 20%; in the data set with WM451 cells, “approximately 80%”. Moreover, in the data set with 1552C cells, the “sensitivity to CDDP treatment” value is given as “highly sensitive”. For the same compound, the “increase in CDDP resistance compared to parental WM35 cells” value in [6] is given as 2 to 3 fold. Moreover, the “increased levels of PARP cleavage” value in the data set with Clone E cells is “not evident”. Further, in the data set on WM35 cells [7], the “time at which increased PARP cleavage (116 kDa to 84 kDa subunit) was detected” value was determined as 6 bours. For the same compound, in [8], the “production of DNA 180 bp multimers, WM35 cells relative to Clone E cells” value is recorded as “approximately 5 times”. Moreover, in the data set with MeWo derived tumors, the “growth rates of tumors, CDDP treated vs saline treated mice” value is “did not differ”. In addition, the “growth rates of tumors relative to saline treated controls” value in the data set on WM9 derived tumors is “significant reduction in growth rates”. Moreover, in the data set with WM9 derived tumors (by day 18 of treatment), the “mice whose tumors had completely disappeared” value was 2 of 5.
`CC(=O)O[C@H]1C(=O)[C@@]2(C)[C@H]([C@H](OC(=O)c3ccccc3)[C@]3(O)C[C@H](OC(=O)[C@H](O)[C@@H](NC(=O)c4ccccc4)c4ccccc4)C(C)=C1C3(C)C)[C@]1(OC(C)=O)CO[C@@H]1C[C@@H]2O` [taxol]: the “resistance … compared to WM35 cells” value in data set [1] is “equally sensitive”.
